Reference: patent publication US8541588B2, “Sulfonamide derivatives” (Pfizer Limited, priority 2009, dated 2013)

Target: T1, Nav1.7 (or SCN9A) channel; HEK cells stably transfected with hSCN9A (Homo sapiens, UniProt Q15858)
T1 construct: expressed in transfected cells
Experiment: Nav1.7 block, PatchXpress 7000 automated whole-cell voltage clamp, estimated IC50 (EIC50)
Format: cell-based
Settings: estimated IC50, PatchXpress platform

[1] = hSCN9A HEK cells, Examples 283-814
[2] = hSCN9A HEK cells held at V1/2 of inactivation
[3] = hSCN9A HEK cells, Examples 815-1040

T1 sequence (Q15858 whole entry): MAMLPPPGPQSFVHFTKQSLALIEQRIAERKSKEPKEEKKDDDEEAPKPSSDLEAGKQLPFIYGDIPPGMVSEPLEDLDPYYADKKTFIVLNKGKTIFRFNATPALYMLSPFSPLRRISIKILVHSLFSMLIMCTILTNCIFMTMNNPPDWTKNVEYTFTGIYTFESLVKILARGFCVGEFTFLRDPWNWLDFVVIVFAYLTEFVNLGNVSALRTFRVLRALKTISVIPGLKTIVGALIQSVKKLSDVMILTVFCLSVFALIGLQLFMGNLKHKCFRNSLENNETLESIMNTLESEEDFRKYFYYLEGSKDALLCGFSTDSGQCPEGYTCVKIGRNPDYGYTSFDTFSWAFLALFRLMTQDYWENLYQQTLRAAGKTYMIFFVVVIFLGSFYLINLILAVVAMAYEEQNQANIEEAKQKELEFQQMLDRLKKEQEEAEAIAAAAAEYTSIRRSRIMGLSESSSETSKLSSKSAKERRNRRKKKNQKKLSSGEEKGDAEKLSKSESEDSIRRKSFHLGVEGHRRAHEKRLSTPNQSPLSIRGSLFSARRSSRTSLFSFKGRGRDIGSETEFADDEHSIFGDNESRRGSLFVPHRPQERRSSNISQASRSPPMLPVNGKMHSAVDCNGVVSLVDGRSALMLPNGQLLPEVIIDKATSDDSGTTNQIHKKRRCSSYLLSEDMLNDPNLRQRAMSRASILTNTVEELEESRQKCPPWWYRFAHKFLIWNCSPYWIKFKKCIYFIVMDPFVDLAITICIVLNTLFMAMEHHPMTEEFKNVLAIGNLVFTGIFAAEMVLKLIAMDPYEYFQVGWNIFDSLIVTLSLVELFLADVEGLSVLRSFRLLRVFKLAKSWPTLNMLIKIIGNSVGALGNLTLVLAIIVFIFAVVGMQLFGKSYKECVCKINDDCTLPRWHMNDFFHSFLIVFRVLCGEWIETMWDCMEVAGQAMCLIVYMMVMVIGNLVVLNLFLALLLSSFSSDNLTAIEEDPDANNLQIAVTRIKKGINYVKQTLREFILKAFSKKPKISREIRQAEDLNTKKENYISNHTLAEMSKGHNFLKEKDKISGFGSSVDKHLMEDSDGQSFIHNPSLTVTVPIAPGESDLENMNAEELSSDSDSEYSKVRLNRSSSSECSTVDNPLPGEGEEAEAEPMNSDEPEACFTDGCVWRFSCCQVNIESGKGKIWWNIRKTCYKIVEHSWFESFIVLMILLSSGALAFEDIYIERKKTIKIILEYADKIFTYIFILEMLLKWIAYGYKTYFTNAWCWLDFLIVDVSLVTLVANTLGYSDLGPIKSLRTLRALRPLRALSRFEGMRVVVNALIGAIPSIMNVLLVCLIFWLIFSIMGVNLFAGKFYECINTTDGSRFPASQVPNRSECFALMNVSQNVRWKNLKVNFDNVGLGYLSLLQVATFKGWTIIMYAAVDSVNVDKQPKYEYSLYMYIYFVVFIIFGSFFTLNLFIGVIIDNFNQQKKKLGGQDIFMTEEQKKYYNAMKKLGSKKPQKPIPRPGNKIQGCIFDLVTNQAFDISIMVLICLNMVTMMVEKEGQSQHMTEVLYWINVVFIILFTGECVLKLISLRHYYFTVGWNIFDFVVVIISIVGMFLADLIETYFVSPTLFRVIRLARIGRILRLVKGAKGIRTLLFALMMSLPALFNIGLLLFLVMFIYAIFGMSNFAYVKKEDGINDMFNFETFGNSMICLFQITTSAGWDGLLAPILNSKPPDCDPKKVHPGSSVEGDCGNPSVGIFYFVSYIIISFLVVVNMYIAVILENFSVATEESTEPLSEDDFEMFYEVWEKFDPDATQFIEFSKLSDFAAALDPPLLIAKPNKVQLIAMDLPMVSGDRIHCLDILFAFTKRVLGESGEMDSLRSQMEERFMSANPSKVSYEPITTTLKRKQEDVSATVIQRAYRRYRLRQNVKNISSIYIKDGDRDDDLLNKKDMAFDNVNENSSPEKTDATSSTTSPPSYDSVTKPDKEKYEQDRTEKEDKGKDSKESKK

| SMILES | IC50 [1] | IC50 [2] | further results |
| --- | --- | --- | --- |
| N#Cc1cc(S(=O)(=O)Nc2nccs2)ccc1Oc1ccc(-c2cc(C(F)(F)F)n(CCCF)n2)cc1F [Example 480, 3-cyano-4-{2-fluoro-4-[1-(3-fluoropropyl)-5-(trifluoromethyl)-1H-pyrazol-3-yl]phenoxy}-N-1,3-thiazol-2-ylbenzenesulfonamide] | >1000 nM |  |  |
| N#Cc1cc(S(=O)(=O)Nc2ncns2)ccc1Oc1cccnc1-c1ccccc1 [Example 22, 3-cyano-4-[(2-phenylpyridin-3-yl)oxy]-N-1,2,4-thiadiazol-5-ylbenzenesulfonamide] |  | 3140 nM |  |
| N#Cc1cc(S(=O)(=O)Nc2nccs2)ccc1Oc1ccc(N2CCCC2=O)cc1 [Example 488, 3-cyano-4-[4-(2-oxopyrrolidin-1-yl)phenoxy]-N-1,3-thiazol-2-ylbenzenesulfonamide] | >1000 nM |  |  |
| Cn1nccc1-c1cc(Cl)ccc1Oc1ccc(S(=O)(=O)Nc2ccccn2)cc1C#N [Example 442, 4-[4-chloro-2-(1-methyl-1H-pyrazol-5-yl)phenoxy]-3-cyano-N-pyridin-2-ylbenzenesulfonamide] | 1300 nM |  |  |
| Cn1nc(-c2ccccc2)cc1Oc1ccc(S(=O)(=O)Nc2ncns2)cc1C#N [Example 82, 3-cyano-4-[(1-methyl-3-phenyl-1H-pyrazol-5-yl)oxy]-N-1,2,4-thiadiazol-5-ylbenzenesulfonamide] |  | 37200 nM |  |
| N#Cc1cc(S(=O)(=O)Nc2ncc(Cl)s2)ccc1Oc1ccc(Cl)cc1-c1cn[nH]c1N [Example 583, 4-[2-(5-Amino-1H-pyrazol-4-yl)-4-chlorophenoxy]-N-(5-chloro-1,3-thiazol-2-yl)-3-cyanobenzenesulfonamide] | 13 nM |  |  |
| N#Cc1cc(S(=O)(=O)Nc2nccs2)ccc1Oc1ccc(-c2cc(C3CC3)n[nH]2)c(Cl)c1 [Example 373, 4-[3-chloro-4-(3-cyclopropyl-1H-pyrazol-5-yl)phenoxy]-3-cyano-N-1,3-thiazol-2-ylbenzenesulfonamide] | >1000 nM |  |  |
| O=S(=O)(Nc1nncs1)c1cc(Cl)c(Oc2ccc(OC(F)(F)F)cc2-c2ccnnc2)cc1F [Example 932, 5-chloro-2-fluoro-4-[2-pyridazin-4-yl-4-(trifluoromethoxy)phenoxy]-N-1,3,4-thiadiazol-2-ylbenzenesulfonamide] |  |  | IC50 [3]: 75 nM |
| Cn1nccc1-c1cc(Cl)ccc1Oc1ncc(S(=O)(=O)Nc2ncns2)cc1Cl [Example 927, 5-chloro-6-[4-chloro-2-(1-methyl-1H-pyrazol-5-yl)phenoxy]-N-1,2,4-thiadiazol-5-ylpyridine-3-sulfonamide] |  |  | IC50 [3]: 120 nM |
| N#Cc1cc(S(=O)(=O)Nc2ncns2)ccc1Oc1ccccc1-c1cccc(OC(F)(F)F)c1 [Example 55, 3-cyano-N-1,2,4-thiadiazol-5-yl-4-{[3′-(trifluoromethoxy)biphenyl-2-yl]oxy}benzenesulfonamide] |  | 920 nM |  |
| Cn1cc(-c2ccc(Cl)cc2)c(Oc2ccc(S(=O)(=O)Nc3ncns3)cc2C#N)n1 [Example 64, 4-{[4-(4-chlorophenyl)-1-methyl-1H-pyrazol-3-yl]oxy}-3-cyano-N-1,2,4-thiadiazol-5-ylbenzenesulfonamide] |  | 780 nM |  |
| CC(C)(C)n1nc(Cc2ccc(Cl)cc2)cc1Oc1ccc(S(=O)(=O)Nc2nccs2)cc1F [Example 240, 4-[2-tert-butyl-5-(4-chloro-benzyl)-2H-pyrazol-3-yloxy]-3-fluoro-N-thiazol-2-yl-benzenesulfonamide] |  | 1980 nM |  |
| N#Cc1cc(S(=O)(=O)Nc2ncns2)ccc1Oc1ccc(CC2CC2)cc1 [Example 60, 3-cyano-4-[4-(cyclopropylmethyl)phenoxy]-N-1,2,4-thiadiazol-5-ylbenzenesulfonamide] |  | 2790 nM |  |
| CC(C)(C#N)c1ccc(Oc2cc(F)c(S(=O)(=O)Nc3nncs3)cc2Cl)c(-c2ccnnc2)c1 [Example 1021, 5-chloro-4-[4-(1-cyano-1-methylethyl)-2-pyridazin-4-ylphenoxy]-2-fluoro-N-1,3,4-thiadiazol-2-ylbenzenesulfonamide] |  |  | IC50 [3]: 1300 nM |
| CCc1nnc(C)n1-c1ccc(Oc2ccc(S(=O)(=O)Nc3nccs3)cc2F)cc1 [Example 132, 4-[4-(3-ethyl-5-methyl-4H-1,2,4-triazol-4-yl)phenoxy]-3-fluoro-N-1,3-thiazol-2-ylbenzenesulfonamide] |  | 17300 nM |  |
| N#Cc1ccnc(NS(=O)(=O)c2ccc(Oc3ccccc3-c3ccccc3)c(C#N)c2)n1 [Example 433, 4-(biphenyl-2-yloxy)-3-cyano-N-(4-cyanopyrimidin-2-yl)benzenesulfonamide] | 15000 nM |  |  |
| N#Cc1cc(S(=O)(=O)Nc2ncc(Cl)s2)ccc1Oc1ccccc1OCc1ccccc1 [Example 136, 4-[2-(benzyloxy)phenoxy]-N-(5-chloro-1,3-thiazol-2-yl)-3-cyanobenzenesulfonamide] |  | 2700 nM |  |
| Cc1nocc1-c1cc(Cl)ccc1Oc1ccc(S(=O)(=O)Nc2ncns2)cc1C#N [Example 961, 4-[4-chloro-2-(3-methylisoxazol-4-yl)phenoxy]-3-cyano-N-1,2,4-thiadiazol-5-ylbenzenesulfonamide] |  |  | IC50 [3]: 7.9 nM |
| Cn1nc(C(F)(F)F)cc1-c1ccc(Oc2ccc(S(=O)(=O)Nc3ncc(F)s3)cc2C#N)c(F)c1 [Example 535, 3-cyano-4-{2-fluoro-4-[1-methyl-3-(trifluoromethyl)-1H-pyrazol-5-yl]phenoxy}-N-(5-fluoro-1,3-thiazol-2-yl)benzenesulfonamide] | 170 nM |  |  |
| O=S(=O)(Nc1ncns1)c1ccc(Oc2ccccc2-c2ccccc2)c(Cl)c1 [Example 150, 4-(biphenyl-2-yloxy)-3-chloro-N-1,2,4-thiadiazol-5-ylbenzenesulfonamide] |  | 190 nM |  |
| O=S(=O)(Nc1ncns1)c1cc(F)c(Oc2ccc(Cl)cc2-c2ccnnc2)cc1F [Example 879, 4-(4-chloro-2-pyridazin-4-ylphenoxy)-2,5-difluoro-N-1,2,4-thiadiazol-5-ylbenzenesulfonamide] |  |  | IC50 [3]: 7 nM |
| N#Cc1cnn(-c2ccc(Oc3ccc(S(=O)(=O)Nc4nccs4)cc3C#N)cc2)c1 [Example 994, 3-cyano-4-[4-(4-cyano-1H-pyrazol-1-yl)phenoxy]-N-1,3-thiazol-2-ylbenzenesulfonamide] |  |  | IC50 [3]: 9500 nM |
| N#Cc1cc(S(=O)(=O)Nc2ccc(F)cn2)ccc1Oc1ccc(-n2ccnc2)cc1 [Example 569, 3-cyano-N-(5-fluoropyridin-2-yl)-4-[4-(1H-imidazol-1-yl)phenoxy]benzenesulfonamide] | >3000 nM |  |  |

More lines, main results first:

| IC50 [1] | IC50 [2] | SMILES | further results |
| --- | --- | --- | --- |
| 5.3 nM |  | N#Cc1cc(S(=O)(=O)Nc2ncns2)ccc1Oc1cc(Cl)c(F)cc1-c1cn[nH]c1 [Example 754, 4-[5-chloro-4-fluoro-2-(1H-pyrazol-4-yl)phenoxy]-3-cyano-N-1,2,4-thiadiazol-5-ylbenzenesulfonamide] |  |
| 4.2 nM |  | O=S(=O)(Nc1ncns1)c1cc(F)c(Oc2cc(F)c(Cl)cc2-c2ccn[nH]2)cc1F [Example 762, 4-[4-chloro-5-fluoro-2-(1H-pyrazol-5-yl)phenoxy]-2,5-difluoro-N-1,2,4-thiadiazol-5-ylbenzenesulfonamide] |  |
| 32 nM |  | Cn1nc(C(F)(F)F)cc1-c1ccc(Oc2ccc(S(=O)(=O)Nc3nccs3)cc2C#N)c(Cl)c1 [Example 335, 4-{2-chloro-4-[1-methyl-3-(trifluoromethyl)-1H-pyrazol-5-yl]phenoxy}-3-cyano-N-1,3-thiazol-2-ylbenzenesulfonamide] |  |
|  | 30 nM | N#Cc1cc(S(=O)(=O)Nc2nccs2)ccc1Oc1ccc(Cl)cc1-c1ccccc1 [Example 156, 4-[(5-chlorobiphenyl-2-yl)oxy]-3-cyano-N-1,3-thiazol-2-ylbenzenesulfonamide] |  |
| 2.7 nM |  | Nc1cc(-c2cc(F)ccc2Oc2cc(F)c(S(=O)(=O)Nc3ncns3)cc2Cl)ccn1 [Example 405, 4-[2-(2-aminopyridin-4-yl)-4-fluorophenoxy]-5-chloro-2-fluoro-N-1,2,4-thiadiazol-5-ylbenzenesulfonamide] |  |
| 1200 nM |  | CC(C)(C)n1nccc1-c1cc(F)ccc1Oc1cc(F)c(S(=O)(=O)Nc2cscn2)cc1Cl [Example 519, 4-[2-(1-tert-butyl-1H-pyrazol-5-yl)-4-fluorophenoxy]-5-chloro-2-fluoro-N-1,3-thiazol-4-ylbenzenesulfonamide] |  |
| 5.1 nM |  | Nc1cc(-c2cc(Cl)ccc2Oc2cc(F)c(S(=O)(=O)Nc3ccncn3)cc2Cl)ccn1 [Example 812, 4-[2-(2-aminopyridin-4-yl)-4-chlorophenoxy]-5-chloro-2-fluoro-N-pyrimidin-4-ylbenzenesulfonamide] |  |
| 91 nM |  | O=S(=O)(Nc1cscn1)c1cc(Cl)c(Oc2ccc(C(F)(F)F)cc2-c2cn[nH]c2)cc1F [Example 659, 5-chloro-2-fluoro-4-[2-(1H-pyrazol-4-yl)-4-(trifluoromethyl)phenoxy]-N-1,3-thiazol-4-ylbenzenesulfonamide] |  |
| 7.2 nM |  | Nc1cc(-c2cc(Cl)ccc2Oc2cc(F)c(S(=O)(=O)Nc3ncns3)cc2F)ccn1 [Example 787, 4-[2-(2-aminopyridin-4-yl)-4-chlorophenoxy]-2,5-difluoro-N-1,2,4-thiadiazol-5-ylbenzenesulfonamide] |  |
| 510 nM |  | N#Cc1cc(S(=O)(=O)Nc2ncc(Cl)s2)ccc1Oc1ccc(F)cc1-c1ccn[nH]1 [Example 589, N-(5-Chloro-1,3-thiazol-2-yl)-3-cyano-4-[4-fluoro-2-(1H-pyrazol-5-yl)phenoxy]benzenesulfonamide] |  |
| 810 nM |  | Cn1ncc(F)c1-c1cc(Cl)ccc1Oc1ccc(S(=O)(=O)Nc2nccs2)cc1F [Example 307, 4-[4-Chloro-2-(4-fluoro-1-methyl-1H-pyrazol-5-yl)phenoxy]-3-fluoro-N-1,3-thiazol-2-ylbenzenesulfonamide] |  |
|  | 130 nM | COc1cccc(-c2cc(F)ccc2Oc2ccc(S(=O)(=O)Nc3nccs3)cc2C#N)c1 [Example 154, 3-cyano-4-[(5-fluoro-3′-methoxybiphenyl-2-yl)oxy]-N-1,3-thiazol-2-ylbenzenesulfonamide] |  |
| 40 nM |  | N#Cc1cc(S(=O)(=O)Nc2ncc(Cl)s2)ccc1Oc1ccc(F)cc1-c1cn[nH]c1 [Example 785, N-(5-Chloro-1,3-thiazol-2-yl)-3-cyano-4-[4-fluoro-2-(1H-pyrazol-4-yl)phenoxy]benzenesulfonamide] |  |
